# Test results taken from ChEMBL document CHEMBL5543153, “Discovery of a Potent Dual Son of Sevenless 1 (SOS1) and Epidermal Growth Factor Receptor (EGFR) Inhibitor for the Treatment of Prostate Cancer” (J Med Chem, 2024).
# The source made the active and inactive calls. The rule behind the calls is not given here.
# Key:
# [1] = Toxicity in BALB/c mouse xenografted with human PC-3 cells assessed as change in blood urea nitrogen level at 20 mg/kg,ip administrated once every 4 days for 24 days by automatic biochemical analyzer; format: organism-based; details: in vivo, 576 h, time 24 day
# [2] = biological target: T1, Son of sevenless homolog 1 (Homo sapiens) (UniProt Q07889); experiment: Inhibition of SOS1 in human PC-3 cells assessed as downregulation of ERK phosphorylation at 12.5 uM incubated for 15 mins by Western blotting analysis; format: cell-based
# T1 sequence (whole entry): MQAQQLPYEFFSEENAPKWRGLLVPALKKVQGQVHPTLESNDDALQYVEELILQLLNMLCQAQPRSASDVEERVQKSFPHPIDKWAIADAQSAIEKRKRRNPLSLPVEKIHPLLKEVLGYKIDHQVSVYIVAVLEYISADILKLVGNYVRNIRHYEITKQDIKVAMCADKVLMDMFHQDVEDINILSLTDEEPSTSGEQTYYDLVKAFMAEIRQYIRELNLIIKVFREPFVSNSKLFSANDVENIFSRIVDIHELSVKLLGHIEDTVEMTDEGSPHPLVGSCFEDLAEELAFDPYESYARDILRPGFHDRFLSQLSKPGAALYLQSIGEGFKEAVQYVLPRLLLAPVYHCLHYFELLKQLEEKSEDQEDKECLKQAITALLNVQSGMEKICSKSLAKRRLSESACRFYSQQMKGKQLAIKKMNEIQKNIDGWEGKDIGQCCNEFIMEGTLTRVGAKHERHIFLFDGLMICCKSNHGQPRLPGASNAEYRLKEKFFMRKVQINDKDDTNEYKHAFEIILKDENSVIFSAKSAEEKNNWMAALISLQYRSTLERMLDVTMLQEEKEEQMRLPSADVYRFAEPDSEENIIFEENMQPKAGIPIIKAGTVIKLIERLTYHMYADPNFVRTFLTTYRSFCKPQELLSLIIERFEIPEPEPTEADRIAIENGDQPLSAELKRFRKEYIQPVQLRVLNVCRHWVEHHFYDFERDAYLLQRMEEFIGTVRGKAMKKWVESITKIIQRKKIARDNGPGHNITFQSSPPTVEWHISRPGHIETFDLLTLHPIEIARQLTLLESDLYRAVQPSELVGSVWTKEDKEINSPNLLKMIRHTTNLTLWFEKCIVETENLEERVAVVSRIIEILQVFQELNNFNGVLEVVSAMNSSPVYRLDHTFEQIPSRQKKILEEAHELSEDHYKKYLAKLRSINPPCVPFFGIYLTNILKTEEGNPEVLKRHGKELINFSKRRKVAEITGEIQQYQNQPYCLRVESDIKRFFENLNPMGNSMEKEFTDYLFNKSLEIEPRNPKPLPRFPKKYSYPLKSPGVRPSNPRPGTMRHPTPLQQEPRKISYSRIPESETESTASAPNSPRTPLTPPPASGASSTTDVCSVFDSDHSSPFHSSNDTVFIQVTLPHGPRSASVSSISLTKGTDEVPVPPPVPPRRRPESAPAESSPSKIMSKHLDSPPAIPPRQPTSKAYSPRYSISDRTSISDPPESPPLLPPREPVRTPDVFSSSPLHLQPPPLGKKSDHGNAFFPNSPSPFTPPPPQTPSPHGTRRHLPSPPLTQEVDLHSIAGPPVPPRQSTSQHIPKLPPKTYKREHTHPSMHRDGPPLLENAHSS
# [3] = test system: PC-3; experiment: Induction of apoptosis in human PC-3 cells assessed as viable cells at 2.5 uM by Annexin V-FITC staining based flow cytometry (reference value: 94.9%); format: functional; details: read-out: Activity
# [4] = biological target: T1, Son of sevenless homolog 1 (Homo sapiens); experiment: Inhibition of human recombinant SOS1 at 10 uM relative to control
# [5] = test system: HUVEC; experiment: Inhibition of cell migration in HUVEC cells assessed as reduction in migration index measured after 48 hrs by wound healing assay; format: functional, cell-based; details: Homo sapiens
# [6] = Toxicity in BALB/c mouse xenografted with human PC-3 cells assessed as spleen pathological change at 20 mg/kg,ip administrated once every 4 days for 24 days by hematoxylin and eosin staining based analysis; format: organism-based; details: in vivo, 576 h, time 24 day
# [7] = test system: PC-3; experiment: Induction of apoptosis in human PC-3 cells assessed as early apoptotic cells at 2.5 uM by Annexin V-FITC staining based flow cytometry (reference value: 2.64%); format: functional
# [8] = test system: PC-3; experiment: Induction of cell cycle arrest in human PC-3 cells assessed as accumulation of cells at G2 phase at 2.5 uM by PI staining based flow cytometry (reference value: 7.75%); format: functional
# [9] = Antiproliferative activity against human RWPE-1 cells assessed as inhibition of cell growth incubated for 72 hrs by MTT assay; format: toxicity, cell-based
# [10] = Toxicity in BALB/c mouse xenografted with human PC-3 cells assessed as kidney pathological change at 5 mg/kg,ip administrated once every 4 days for 24 days by hematoxylin and eosin staining based analysis; format: organism-based; details: in vivo, 576 h, time 24 day
# [11] = test system: PC-3; experiment: Induction of apoptosis in human PC-3 cells assessed as necrotic cells at 12.5 uM by Annexin V-FITC staining based flow cytometry (reference value: 0.48%); format: functional
# [12] = biological target: T2, Son of sevenless homolog 1 (Homo sapiens, UniProt Q07889); experiment: Inhibition of human recombinant SOS1
# T2 sequence (Q07889 whole entry): T1 sequence (whole entry)
# [13] = test system: PC-3; experiment: Antitumor activity against human PC-3 cells xenografted in BALB/c mouse assessed as increase in apoptosis in tumor tissue at ip administrated once every 4 days for 24 days by TUNEL staining based immunohistochemical analysis; format: functional, organism-based; details: time 24.0 day
# [14] = test system: PC-3; experiment: Induction of cell cycle arrest in human PC-3 cells assessed as accumulation of cells at G1 phase at 0.5 uM by PI staining based flow cytometry (reference value: 75.66%); format: functional
# [15] = test system: A-427; experiment: Antiproliferative activity against human A-427 cells harboring KRAS G12D mutant assessed as inhibition of cell growth incubated for 72 hrs by MTT assay; format: functional, cell-based; details: A-427, 72 h
# [16] = biological target: T1, Son of sevenless homolog 1 (Homo sapiens); experiment: Inhibition of SOS1 in human PC-3 cells assessed as downregulation of AKT phosphorylation at 0.5 uM incubated for 15 mins by Western blotting analysis; format: cell-based
# [17] = test system: HUVEC; experiment: Antiangiogenic activity in HUVEC cells assessed as reduction in total branching length at 0.5 to 12.5 uM incubated for 8 hrs by matrigel based microscopic analysis; format: functional, cell-based; details: Homo sapiens, dose 0.5-12.5 µM
# [18] = test system: PC-3; experiment: Antiproliferative activity against human PC-3 cells assessed as reduction in EdU-positive cells at 0.5 to 12.5 uM incubated for 48 hrs by EdU incorporation assay; format: functional, cell-based; details: dose 0.5-12.5 µM
# [19] = test system: PC-3; experiment: Antitumor activity against human PC-3 cells xenografted in BALB/c mouse assessed as reduction in tumor volume at 5 mg/kg,ip administrated once every 4 days for 24 days; format: functional, organism-based; details: time 24.0 day
# [20] = Toxicity in BALB/c mouse xenografted with human PC-3 cells assessed as kidney pathological change at 20 mg/kg,ip administrated once every 4 days for 24 days by hematoxylin and eosin staining based analysis; format: organism-based; details: in vivo, 576 h, time 24 day
# [21] = test system: PC-3; experiment: Induction of cell cycle arrest in human PC-3 cells assessed as accumulation of cells at G1 phase at 12.5 uM by PI staining based flow cytometry (reference value: 75.66%); format: functional
# [22] = test system: K562; experiment: Antiproliferative activity against human K562 cells assessed as inhibition of cell growth incubated for 72 hrs by MTT assay; format: functional, cell-based
smiles,measurement,setting,value
COc1cc2ncnc(N[C@H](C)c3cccc(F)c3)c2cc1OC1CCOCC1,Activity,[1],Non-Toxic
same,inhibition,[2],Active
same,viability at 2.5 µM,[3],79.1%
same,inhibition,[4],97%
same,inhibition,[5],Dose-Dependent Effect
same,Activity,[6],Toxic
same,Activity,[7],17%
same,Activity,[8],12.65%
same,IC50 at 72 h,[9],> 10000 nM
same,Activity,[10],Toxic
same,Activity,[11],0.15%
same,IC50,[12],42.1 nM
same,Activity,[13],Dose-Dependent Effect
same,Activity,[14],79.45%
same,IC50,[15],550 nM
same,inhibition,[16],Active
same,Activity,[17],Active
same,Activity,[18],Active
same,Activity,[19],Active
same,Activity,[20],Toxic
same,Activity,[21],87.38%
same,Activity,[22],Active
